According to US7262210B2, “Fluorinated pyridine N-oxide thrombin modulators and process for N-oxidation of nitrogen containing heteroaryls” (Janssen Pharmaceutica N.V., priority 2005, dated 2007):
Structures can show the parent of a compound that is named as a salt.

Molecular target: T1, Human α-thrombin (Homo sapiens, UniProt P00734)
T1 construct: Human α-thrombin (Enzyme Research Laboratories HT1002a); purchased Enzyme Research Laboratories (South Bend, Ind.) HT1002a
Test: In vitro inhibition of purified enzyme; kinetic analysis by chromogenic substrates
Assay type: biochemical
Settings: substrate SucAAPR pNA 100 uM, Km=320 μM, Ki factor=0.76; 37° C., pH 7.5, 4% DMSO; thrombin 1.1 nM; Ki=IC50×Ki factor
Description: In Vitro Inhibition of Purified Enzyme
Reagents: All buffer salts were obtained from Sigma Chemical Company (St. Louis, Mo.), and were of the highest purity available.
Human α-thrombin, was obtained from Enzyme Research Laboratories (South Bend, Ind.).
Kinetic Analysis by Chromogenic Substrates
Compounds were assessed for their inhibitory activity toward Thrombin by kinetic analysis using para-nitroaniline chromogenic substrates monitored at 405 nm. The assay buffer employed was 50 mM HEPES, pH 7.5, 200 mM NaCl, and fresh 0.05% n-octyl β-d-glucopyranoside. DMSO was present at a final concentration of 4%, derived from the substrate and inhibitory compound stock solutions. […] Reactions were initiated by addition of 10 μL protease, and increase in absorbance due to proteolytic cleavage of substrate was kinetically monitored at 37° C., 405 nm with a Molecular Devices Spectramax 340 platereader. Initial velocities were determined by analysis of the initial linear portion of the reactions. Plots of vo/vi vs. inhibitor concentration, where vo=velocity without inhibitor, and vi=inhibited velocity, were fit to a linear regression line, and the IC50 was determined from the reciprocal of the slope. […]

- Ki: 9.8 to 11 nM
Structure (SMILES): N#Cc1cc(F)c(NCC(F)(F)c2ccccn2)[n+]([O-])c1CC(=O)NCc1ncccc1F [Example 1, 2-[3-Cyano-6-(2,2-difluoro-2-pyridin-2-yl-ethylamino)-5-fluoro-1-oxy-pyridin-2-yl]-N-(3-fluoro-pyridin-2-ylmethyl)-acetamide dihydrochloride]
